{"source": "patent US9890369B2", "about": "(priority 2013, dated 2018)", "key": {"[1]": {"test_system": "CHO K1 cells", "format": "cell-based, Chinese hamster"}, "[2]": {"test_system": "HeLa cells", "format": "cell-based, human"}, "[3]": {"test_system": "CHO K1 cells (WTP4)", "format": "cell-based, Chinese hamster"}}, "note": "Where “and” joins values, the source holds several entries; their conditions need not be identical. Identical values can stand only once.", "data": [{"smiles": "CN[C@@H]1C[C@H]2O[C@@](C)([C@@H]1OC)n1c3ccccc3c3c4c(c5c6ccccc6n2c5c31)C(=O)NC4", "note": "[Staurosporine, staurosporine]", "values": [{"measurement": "apoptosis induction by TUNEL staining (in words)", "setting": "[1]", "result": "complete conversion of cells"}, {"measurement": "apoptosis induction by PARP cleavage", "setting": "[2]", "result": "apoptosis induction"}, {"measurement": "% G0/G1", "setting": "[3]", "result": "42.9% and 41.8%"}, {"measurement": "% G2/M", "setting": "[3]", "result": "13.6% and 12.2%"}]}]}
